This is an account of results in US20110237495A1, “FUNCTIONAL METABOLOMICS COUPLED MICROFLUIDIC CHEMOTAXIS DEVICE AND IDENTIFICATION OF NOVEL CELL MEDIATORS” (The Brigham and Women's Hospital, Inc. Corporate Sponsored …, priority 2008, published 2011).

For data set [1] the following is noted: cited from earlier work.
Data set [2] has as its system leukocyte infiltration in lung tissues. Nature of the data set: Hind-limb ischemia-reperfusion-induced second-organ (lung) injury, lung MPO by ELISA. Type of data set: in vivo, mice. The settings on record: for effect on leukocyte (PMN) infiltration / MPO in lung tissue, in words: 1 μg/mouse i.v.; for reduction of lung MPO concentration (FIG. 7D), mean±SEM: 1 μg i.v. 5 min before reperfusion, lungs collected after 2 h reperfusion. The procedure:
To identify the effects of the resolvins and protectins on inflammation resolution, ischemia-reperfusion induced second-organ injury experiments were designed and are illustrated in FIGS. 7A-D. Mice were anesthetized by intraperitoneal injection of pentobarbital (80 mg kg^−1, Nembutal sodium solution NDC 0074-3778-04). Hind-limb ischemia was initiated using tourniquets consisting of a rubber band placed on each hind limb as in ref.^35. Mice were subjected to hind limb ischemia for 1 h, after which the tourniquets were removed to initiate reflow-reperfusion. Resolvins, related compounds and analogs were each administered at 1 μg/mouse (i.e., DHA, RvD1, RvD1 methyl ester, 17-(R/S)-methyl-RvD1 methyl ester, RvE1, or 19-p-fluorophenoxy-RvE1 methyl ester) in vehicle (5 μl ethanol in 120 μl sterile saline) or vehicle alone. They were administered intravenously to the tail vein ˜5 min before the start of the reperfusion period. At the end of this reperfusion period (2 h), the mice were euthanized with an overdose of anesthetic and the lungs were quickly harvested, frozen in liquid nitrogen, and stored at −80° C. The right lungs were homogenized from individual mice and centrifuged, and the tissue levels of myeloperoxidase (MPO) (a leukocyte marker enzyme) in the resulting supernatants, for each experimental protocol, were determined using a mouse MPO enzyme-linked immunosorbent assay (Hycult biotechnology, Cell Sciences, Uden, The Netherlands).
Briefly, as illustrated in the time-course shown in FIG. 7A, hind-limb ischemia was induced in mice by creating tourniquets using a rubber band on each hind limb. After 1 h, the tourniquets were removed and reperfusion ensued. Test compounds (1 μg of DHA, RvD1, RvE1) in vehicle were administered intravenously 5 min before the start of the reperfusion period. At the end of the reperfusion period (2 h), lungs were collected and MPO concentrations were determined by ELISA. FIGS. 7B and C are representative images from histological analysis. FIG. 9B is a photomicrograph showing a hematoxylin/eosin-stained lung from ischemia/reperfusion second organ injury (control). […] Mean±SEM (n=3-5, control; n=12).
Ischemia/reperfusion is a well-appreciated pathophysiologic mechanism of organ injury and local tissue damage that can be initiated by excessively activated PMN. This system in the mouse, models the second organ injury observed in humans following tourniquet release of vessels in surgery involving, for example, extremities^41, 42. Remote or second organ injury can also occur when blood vessels are occluded, or during certain surgical procedures that create local ischemia and remote organ injury that has many features of rapid, acute inflammation and tissue damage^35. On release of the tourniquet occlusion, reflow is initiated and activated PMN rapidly infiltrate secondary organs, causing damage^35. Here, the inventors evaluated RvD1 in a remote organ injury system, i.e., hind-limb ischemia/reperfusion, to assess whether RvD1's ability to inhibit PMN migration, in vitro, in microchambers (FIGS. 8A-C, 9-11) can be predictive of their effect to reduce PMN mediated tissue and organ damage in vivo. […] The extent of lung tissue injury is associated with PMN activation and organ infiltration^35.
(In general: ELISA stands for enzyme-linked immunosorbent assay.)

Data set [3] in a line: Metabolic inactivation of RvE1 by mouse lung tissue. The data set is classed as in vitro ADME.
A further data set relates to human PMN. Briefly: Microfluidic chemotaxis device: PMN chemotaxis in IL-8 gradient. Type of data set: cell-based. As to conditions: 10 nM (DHA equimolar), PMN captured on P-selectin from a drop of whole blood, n=12. The text has this: A new microvolume chemotaxis device was designed using polyethylene glycol (PEG) that allows testing the chemotactic function of neutrophils and their responses to these novel lipid mediators immediately after being separated from whole blood within the device. One exemplary embodiment of the device is illustrated in FIGS. 8A-C. In this embodiment, the microvolume chemotaxis device with microstructured valves was fabricated using “lab-on-chip” microfabrication technologies^36. Briefly, two silicon wafers were coated with a 50-μm-thick layer of SU8 photoresist (MicroChem, Newton, Mass.). After exposure to UV light through a mylar mask in a mask, aligner and development following manufacturer recommendations, 50 μm-tall features were produced on top of the silicon wafers. Subsequently, poly (dimethylsiloxane) (PDMS, Dow Corning, Midland, Mich.) was prepared by mixing two components in 10:1 ratio, as recommended by the manufacturer. […]
After assembly, different sections of the device were chemically modified for specific functionalities. […] The surface of the chemotaxis chamber, where neutrophils were captured and assessed for their chemotactic responses, were modified by physical adsorption of P-selectin (10 ng/mL for 30 minutes, R&D Systems, Minneapolis, Minn.) immediately before use. […]

For data set [4] the following is noted: human plasma; cited from earlier work.
In data set [5] the test system is P. gingivalis-induced periodontitis. Nature of the data set: Rabbit periodontitis induced with Porphyromonas gingivalis, RvE1 topical monotherapy. Type of data set: in vivo. From the text: The inventors established a small animal model for the evaluation of disease progression and regeneration after treatment using the rabbit as a model induced with periodontitis using Porphyromonas gingivalis. Briefly, ligatures were tied around the second mandibular premolar of rabbits for 6wk to create an environment where the periodontopatogen P. gingivalis could be retained. […] The right panel is the same preparation but with the jaws defleshed to show the bone underneath. […] FIG. 13 sows that the bone loss extends from the crest of the bone to the depth of the infrabony pocket.
The figures illustrate the new deposition of the cementum (NC) the new periodontal ligament (PL), connective tissue (CT) and bone (B).

Data set [6] relates to peripheral blood monocytes. Nature of the data set: RANKL-induced differentiation of peripheral blood monocytes into osteoclasts. Type of data set: cell-based. As to conditions: RANKL treatment. From the text: This effect is even more pronounced than for PRP (platelet rich plasma) a recognized inhibitor of osteoclast differentiation. Preparations of 5, 10, 20% PRP are compared with RvE1 were quantified in experiments in which peripheral blood monocytes were induced to differentiate into osteoclasts with RANKL treatment.
In order to investigate the etiology of resolvins in bone regeneration, the inventors investigated the effect of RvE1 on osteoclast differentiation. In these experiments, peripheral blood monocytes were induced to differentiate into osteoclasts with RANKL treatment.

For data set [7] the following is noted: healthy human subjects; cited from earlier work.

The structures appear in SMILES notation. “Also recorded” adds a separate entry of the source.

In the case of `CCC(=O)/C=C/C=C\C[C@@H](O)/C=C/C=C/C=C\[C@@H](O)CCCC(=O)O` [18-oxo-RvE1], the “activity of the lung metabolite” value in data set [1] is listed as “devoid of activity”.

With `COC(=O)CCC[C@H](O)\C=C/C=C/C=C/[C@H](O)C/C=C\C=C\[C@@H](O)COc1ccc(F)cc1` [19-p-fluorophenoxy-RvE1-Me, 19-p-fluorophenoxy-RvE1 methyl ester], the “percent reduction of MPO found in lungs (FIG. 11), mean±SEM” value in data set [2] (1 μg i.v. in vehicle, ischemia-reperfusion) was found to be 19.7 ±7.7%. Moreover, the “effect on leukocyte (PMN) infiltration / MPO in lung tissue, in words” value in data set [2] is listed as “significantly reduced leukocyte infiltration”. The “metabolic inactivation (conversion to 18-oxo) in mouse lung tissue” value in data set [3] is “prevents this metabolic inactivation”.

Regarding `CC/C=C\C/C=C\C/C=C\C/C=C\C/C=C\C/C=C\CCC(=O)O` [DHA, [4Z,7Z,10Z,13Z,16Z,19Z]-docosa-4,7,10,13,16,19-hexaenoic acid, reference compound], in data set [2], the “reduction of lung MPO concentration (FIG. 7D), mean±SEM” value was 0±7.7 and the “effect on leukocyte (PMN) infiltration / MPO in lung tissue, in words” value is listed as “neither DHA nor native RvE1 gave significant reduction”. The “effect on PMN migration (chemotaxis) in IL-8 gradient” value in the data set on human PMN was “did not stop PMN migration; also recorded: failed to stop neutrophil chemotaxis”. Also, in data set [4], the half-life was 20 h.

With `CC/C=C\C/C=C\C/C=C\C/C=C\C/C=C\CCCC(=O)O` [EPA, [5Z,8Z,11Z,14Z,17Z-icosa-5,8,11,14,17-pentaenoic acid], the half-life in data set [4] was 67 h.

Regarding `CC[C@@H](O)/C=C/C=C\C[C@@H](O)/C=C/C=C/C=C\[C@@H](O)CCCC(=O)O` [RvE1, 5S,12R,18R-trihydroxy-6Z,8E,10E,14Z,16E-eicosapentaenoic acid], in data set [2], the “reduction of lung MPO concentration (FIG. 7D), mean±SEM” value is 0±9.3 and the “effect on leukocyte (PMN) infiltration / MPO in lung tissue, in words” value was “inactive”. In addition, in data set [5] (animals with induced periodontitis treated with RvE1), the “bone regeneration compared with healthy controls (FIG. 13)” value is on record as “approximately 80%”. Besides, the “histology of regenerated periodontium (undecalcified sections)” value in data set [5] (area of prior periodontal disease) was “establishment of new cementum, new fiber attachment and new bone and connective tissue”. For the same compound, in data set [5] (p<0.001), the “RvE1-induced bone regeneration, in words” value is on record as “to pre-disease levels”. The osteoclast differentiation entry in data set [6] (PRP 5, 10, 20%, P<0.05) is “significantly inhibited”. Moreover, in data set [6] (increasing amounts), the “resorption area (FIG. 15)” value is given as “significantly decreased”.

Take `CC/C=C\C/C=C\C/C=C\CCCCCCCC(=O)O` [α-linolenic acid]: in data set [7], the “extent of conversion to DHA” value was 0.05 to 4.0% and the “proportion converted to EPA” value is on record as 0.20 to 8.0%.

By half-life is commonly meant how long it takes for the measured level to halve.
